According to ChEMBL document CHEMBL1777730, “Antimycobacterial activity of novel 1,2,4-oxadiazole-pyranopyridine/chromene hybrids generated by chemoselective 1,3-dipolar cycloadditions of nitrile oxides” (2011):
≈ marks a conversion by molar mass, not a printed value.

Tested on: Mycobacterium tuberculosis
Assay: Antimycobacterial activity against Mycobacterium tuberculosis H37Rv by agar dilution method
Format: functional

SMILES: CN1CC2=C(OC(N)=C(c3nc(-c4ccc(Cl)cc4)no3)C2c2ccccc2)/C(=C/c2ccccc2)C1 (centres undefined)
- MIC: 12.3 µM (≈ 6.25 µg/mL)

SMILES: CN1CC2=C(OC(N)=C(c3nc(-c4ccc(Cl)cc4)no3)C2c2ccc(Cl)cc2)/C(=C/c2ccc(Cl)cc2)C1 (centres undefined)
- MIC: 0.35 µM (≈ 0.202 µg/mL)

SMILES: Cc1ccc(/C=C2\CN(C)CC3=C2OC(N)=C(c2nc(-c4ccc(Cl)cc4)no2)C3c2ccc(C)cc2)cc1 (centres undefined)
- MIC: 3.28 µM (≈ 1.76 µg/mL)

SMILES: COc1ccc(/C=C2\CN(C)CC3=C2OC(N)=C(c2nc(-c4ccc(Cl)cc4)no2)C3c2ccc(OC)cc2)cc1 (centres undefined)
- MIC: 22 µM (≈ 12.5 µg/mL)

SMILES: Cc1ccccc1/C=C1\CN(C)CC2=C1OC(N)=C(c1nc(-c3ccc(Cl)cc3)no1)C2c1ccccc1C (centres undefined)
- MIC: 11.6 µM (≈ 6.25 µg/mL)

SMILES: COc1ccccc1/C=C1\CN(C)CC2=C1OC(N)=C(c1nc(-c3ccc(Cl)cc3)no1)C2c1ccccc1OC (centres undefined)
- MIC: 5.5 µM (≈ 3.13 µg/mL)

SMILES: CN1CC2=C(OC(N)=C(c3nc(-c4ccc(Cl)cc4)no3)[C@@H]2c2cccc(F)c2)/C(=C/c2cccc(F)c2)C1
- MIC: 0.73 µM (≈ 0.398 µg/mL)

SMILES: CN1CC2=C(OC(N)=C(c3nc(-c4ccc(Cl)cc4)no3)C2c2ccc(Cl)cc2Cl)/C(=C/c2ccc(Cl)cc2Cl)C1 (centres undefined)
- MIC: 0.31 µM (≈ 0.201 µg/mL)

SMILES: CN1CC2=C(OC(N)=C(c3nc(-c4ccc(Cl)cc4)no3)C2c2ccc(N(C)C)cc2)/C(=C/c2ccc(N(C)C)cc2)C1 (centres undefined)
- MIC: 5.26 µM (≈ 3.13 µg/mL)

SMILES: NC1=C(c2nc(-c3ccccc3)no2)C(c2ccc(Cl)cc2)C2=C(O1)/C(=C/c1ccc(Cl)cc1)CCC2 (centres undefined)
- MIC: 23.7 µM (≈ 12.5 µg/mL)

SMILES: COc1ccc(/C=C2\CCCC3=C2OC(N)=C(c2nc(-c4ccccc4)no2)[C@@H]3c2ccc(OC)cc2)cc1
- MIC: 24.1 µM (≈ 12.5 µg/mL)

SMILES: NC1=C(c2nc(-c3ccccc3)no2)C(c2ccc(F)cc2)C2=C(O1)/C(=C/c1ccc(F)cc1)CCC2 (centres undefined)
- MIC: 12.6 µM (≈ 6.26 µg/mL)

SMILES: Cc1ccccc1/C=C1\CCCC2=C1OC(N)=C(c1nc(-c3ccccc3)no1)C2c1ccccc1C (centres undefined)
- MIC: > 25 µM

SMILES: COc1ccccc1/C=C1\CCCC2=C1OC(N)=C(c1nc(-c3ccccc3)no1)C2c1ccccc1OC (centres undefined)
- MIC: 24.1 µM (≈ 12.5 µg/mL)

SMILES: NC1=C(c2nc(-c3ccccc3)no2)C(c2cccc(F)c2)C2=C(O1)/C(=C/c1cccc(F)c1)CCC2 (centres undefined)
- MIC: 12.6 µM (≈ 6.26 µg/mL)

SMILES: N#CC1=C(N)OC2=C(CCC/C2=C\c2ccccc2)C1c1ccccc1 (centres undefined)
- MIC: > 25 µM

SMILES: N#CC1=C(N)OC2=C(CCC/C2=C\c2ccc(Cl)cc2)C1c1ccc(Cl)cc1 (centres undefined)
- MIC: > 25 µM

SMILES: Cc1ccc(/C=C2\CCCC3=C2OC(N)=C(C#N)C3c2ccc(C)cc2)cc1 (centres undefined)
- MIC: > 25 µM

SMILES: COc1ccc(/C=C2\CCCC3=C2OC(N)=C(C#N)C3c2ccc(OC)cc2)cc1 (centres undefined)
- MIC: > 25 µM

SMILES: N#CC1=C(N)OC2=C(CCC/C2=C\c2ccc(F)cc2)C1c1ccc(F)cc1 (centres undefined)
- MIC: > 25 µM

SMILES: N#CC1=C(N)OC2=C(CCC/C2=C\c2ccccc2Cl)C1c1ccccc1Cl (centres undefined)
- MIC: > 25 µM

SMILES: CC[C@@H](CO)NCCN[C@@H](CC)CO [ETHAMBUTOL]
- MIC: 7.64 µM (≈ 1.56 µg/mL)

SMILES: NNC(=O)c1ccncc1 [ISONIAZID]
- MIC: 0.36 µM (≈ 0.0494 µg/mL)

SMILES: CO[C@H]1/C=C/O[C@@]2(C)Oc3c(C)c(O)c4c(O)c(c(/C=N/N5CCN(C)CC5)c(O)c4c3C2=O)NC(=O)/C(C)=C\C=C\[C@H](C)[C@H](O)[C@@H](C)[C@@H](O)[C@@H](C)[C@H](OC(C)=O)[C@@H]1C [RIFAMPIN]
- MIC: 0.12 µM (≈ 0.0988 µg/mL)
